Test results reported in ChEMBL document CHEMBL4017494, “Structural Basis of Wee Kinases Functionality and Inactivation by Diverse Small Molecule Inhibitors” (J Med Chem, 2017).
The source made the active and inactive calls. The calls are words filed in the database; no cut-off is given here.

Columns and labels:
Wee1-like protein kinase [1] = target: T1, Wee1-like protein kinase (Homo sapiens, UniProt P30291); experiment: Inhibition of Wee1 in HEK293T cells assessed as decrease in CDK1 phosphorylation at Tyr15 at 0.1 to 10 uM after 6 hrs by Western blot method; format: cell-based
Target sequence in this assay (P30291 whole entry): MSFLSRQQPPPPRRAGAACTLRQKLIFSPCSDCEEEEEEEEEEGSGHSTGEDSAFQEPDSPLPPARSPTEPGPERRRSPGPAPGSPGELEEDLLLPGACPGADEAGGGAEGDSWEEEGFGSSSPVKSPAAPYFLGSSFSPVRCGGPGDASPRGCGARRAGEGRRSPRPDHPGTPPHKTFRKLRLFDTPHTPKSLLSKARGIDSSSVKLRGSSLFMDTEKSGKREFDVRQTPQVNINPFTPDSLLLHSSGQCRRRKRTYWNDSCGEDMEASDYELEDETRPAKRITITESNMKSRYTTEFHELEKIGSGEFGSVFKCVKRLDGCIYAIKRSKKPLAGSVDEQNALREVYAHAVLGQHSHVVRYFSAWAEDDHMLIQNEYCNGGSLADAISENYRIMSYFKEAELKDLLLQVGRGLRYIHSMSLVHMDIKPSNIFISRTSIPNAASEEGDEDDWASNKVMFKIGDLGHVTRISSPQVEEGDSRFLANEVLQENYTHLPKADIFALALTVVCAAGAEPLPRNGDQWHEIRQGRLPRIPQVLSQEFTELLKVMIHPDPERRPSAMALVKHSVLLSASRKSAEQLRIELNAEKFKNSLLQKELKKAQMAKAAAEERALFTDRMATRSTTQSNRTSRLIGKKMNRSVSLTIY

MM1.S = experiment: Antiproliferative activity against human MM1S cells measured after 72 hrs by CellTiter-Blue assay; format: functional, cell-based
Wee1-like protein kinase [2] = target: T1, Wee1-like protein kinase
Target sequence in this assay (P30291 whole entry, looked up): as the sequence (P30291 whole entry) above

Wee1-like protein kinase [3] = target: T1, Wee1-like protein kinase; conditions: at 0.1 to 10 µM
Target sequence in this assay (P30291 whole entry, looked up): as the sequence (P30291 whole entry) above

[4] = target: T2, Serine/threonine-protein kinase PLK1 (Homo sapiens, UniProt P53350)
MDA-MB-231 = experiment: Antiproliferative activity against human MDA-MB-231 cells measured after 72 hrs by CellTiter-Blue assay; format: functional, cell-based; conditions: MDA-MB-231, 72 h
[5] = target: T2, Serine/threonine-protein kinase PLK1; conditions: 0.1 to 10 uM
[6] = Binding affinity to human FLT3 D835V-mutant assessed as dissociation constant by quantitative real-time PCR method
[7] = target: T3, Wee1-like protein kinase 2 (Homo sapiens, UniProt P0C1S8)
Target sequence in this assay (P0C1S8 whole entry, looked up, the tested form may be a part): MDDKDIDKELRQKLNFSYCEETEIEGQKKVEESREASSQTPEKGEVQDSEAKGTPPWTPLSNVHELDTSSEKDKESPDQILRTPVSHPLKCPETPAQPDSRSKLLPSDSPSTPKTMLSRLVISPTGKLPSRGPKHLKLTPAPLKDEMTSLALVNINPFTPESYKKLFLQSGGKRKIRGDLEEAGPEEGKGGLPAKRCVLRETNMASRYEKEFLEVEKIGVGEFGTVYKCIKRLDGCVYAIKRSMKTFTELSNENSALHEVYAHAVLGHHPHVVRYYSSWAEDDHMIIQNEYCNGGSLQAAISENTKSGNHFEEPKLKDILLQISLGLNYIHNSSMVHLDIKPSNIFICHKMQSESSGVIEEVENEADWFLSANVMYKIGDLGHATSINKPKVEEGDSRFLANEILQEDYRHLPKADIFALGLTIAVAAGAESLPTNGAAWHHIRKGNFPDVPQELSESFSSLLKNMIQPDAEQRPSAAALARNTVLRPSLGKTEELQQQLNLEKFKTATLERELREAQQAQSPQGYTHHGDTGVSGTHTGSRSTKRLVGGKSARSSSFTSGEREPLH

[8] = target: T3, Wee1-like protein kinase 2; experiment: Binding affinity to recombinant human N-terminal His6-tagged Wee2 kinase domain (202 to 492 residues) expressed in Escherichia coli BL21 (DE3) by isothermal titration calorimetry
Target sequence in this assay (P0C1S8 whole entry, the tested form may be a part): as the sequence (P0C1S8 whole entry, looked up, the tested form may be a part) above

[9] = target: T4, Membrane-associated tyrosine- and threonine-specific cdc2-inhibitory kinase (Homo sapiens) (UniProt Q99640)
T4 sequence (whole entry): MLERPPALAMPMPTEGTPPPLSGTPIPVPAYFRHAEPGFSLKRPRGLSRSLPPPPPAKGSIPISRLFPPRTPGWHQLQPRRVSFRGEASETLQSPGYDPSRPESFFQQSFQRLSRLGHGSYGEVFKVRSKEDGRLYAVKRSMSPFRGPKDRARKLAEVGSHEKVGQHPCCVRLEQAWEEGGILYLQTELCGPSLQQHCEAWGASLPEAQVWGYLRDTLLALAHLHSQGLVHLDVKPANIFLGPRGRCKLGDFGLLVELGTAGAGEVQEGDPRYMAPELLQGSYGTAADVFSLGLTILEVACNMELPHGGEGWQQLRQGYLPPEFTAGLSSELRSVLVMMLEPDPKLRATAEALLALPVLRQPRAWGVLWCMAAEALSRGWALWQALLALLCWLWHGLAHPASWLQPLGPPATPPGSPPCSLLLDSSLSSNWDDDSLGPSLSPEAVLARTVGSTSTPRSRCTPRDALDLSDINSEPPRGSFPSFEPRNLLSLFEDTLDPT

HEK-293T = experiment: Antiproliferative activity against HEK293T cells measured after 72 hrs by CellTiter-Blue assay; format: cell-based; conditions: Homo sapiens
[10] = target: T3, Wee1-like protein kinase 2; experiment: Binding affinity to recombinant human full-length N-terminal His8-tagged Wee2 (1 to 567 residues) expressed in human Expi293F cells assessed as dessociation constant by quantitative real-time PCR method; format: cell-based
Target sequence in this assay (P0C1S8 whole entry, the tested form may be a part): as the sequence (P0C1S8 whole entry, looked up, the tested form may be a part) above

Wee1-like protein kinase [11] = target: T1, Wee1-like protein kinase; experiment: Binding affinity to recombinant human N-terminal His6-tagged Wee1 kinase domain (291 to 575 residues) expressed in Escherichia coli BL21 (DE3) by isothermal titration calorimetry
Target sequence in this assay (P30291 whole entry): as the sequence (P30291 whole entry) above

Wee1-like protein kinase [12] = target: T1, Wee1-like protein kinase; conditions: 0.1 to 10 uM
Target sequence in this assay (P30291 whole entry, looked up): as the sequence (P30291 whole entry) above

[13] = target: T5, Membrane-associated tyrosine- and threonine-specific cdc2-inhibitory kinase (Homo sapiens, UniProt Q99640); experiment: Binding affinity to recombinant human N-terminal His6-tagged Myt1 kinase domain (75 to 361 residues) by isothermal titration calorimetry
T5 sequence (Q99640 whole entry): T4 sequence (whole entry)

Wee1-like protein kinase [14] = target: T1, Wee1-like protein kinase; experiment: Inhibition of Wee1 in HEK293T cells assessed as decrease in CDK1 phosphorylation at Tyr15 at 0.01 to 10 uM after 6 hrs by Western blot method; format: cell-based
Target sequence in this assay (P30291 whole entry): as above

T2 sequence (P53350 whole entry): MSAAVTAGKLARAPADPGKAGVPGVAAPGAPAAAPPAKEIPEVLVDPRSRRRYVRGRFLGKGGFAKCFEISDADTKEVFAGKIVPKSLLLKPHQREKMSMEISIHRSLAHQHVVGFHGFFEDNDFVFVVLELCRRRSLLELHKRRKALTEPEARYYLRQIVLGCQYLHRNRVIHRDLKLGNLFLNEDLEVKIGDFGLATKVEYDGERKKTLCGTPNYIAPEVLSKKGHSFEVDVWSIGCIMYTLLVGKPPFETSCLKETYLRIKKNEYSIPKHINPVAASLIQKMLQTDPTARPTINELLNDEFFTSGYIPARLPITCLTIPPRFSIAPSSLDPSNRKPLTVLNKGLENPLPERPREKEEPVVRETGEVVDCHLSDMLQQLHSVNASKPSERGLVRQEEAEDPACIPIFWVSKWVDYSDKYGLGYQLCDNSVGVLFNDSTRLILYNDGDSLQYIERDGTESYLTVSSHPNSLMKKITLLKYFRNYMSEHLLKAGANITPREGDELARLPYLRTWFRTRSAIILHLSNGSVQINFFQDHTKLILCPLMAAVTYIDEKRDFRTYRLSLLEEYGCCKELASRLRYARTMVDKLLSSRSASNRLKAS

SMILES	IC50 (MM1.S)	ΔTm (Wee1-like protein kinase [2])	IC50 (MDA-MB-231)	ΔTm [7]	Kd ([8]; read-out: Kd)	ΔTm [9]	IC50 (HEK-293T)	Kd ([13]; read-out: Kd)	also measured
CC[C@@H]1C(=O)N(C)c2cnc(Nc3ccc(C(=O)NC4CCN(C)CC4)cc3OC)nc2N1C1CCCC1 [BI-2536]									inhibition (INH) (Wee1-like protein kinase [1]): Not Active
C=CCn1c(=O)c2cnc(Nc3ccc(N4CCN(C)CC4)cc3)nc2n1-c1cccc(C(C)(C)O)n1 [ADAVOSERTIB]	310 nM	15.4 °C	260 nM	11.6 °C	27 nM	3.3 °C	290 nM		inhibition (Wee1-like protein kinase [3]): Active; Kd [4]: 3 nM; inhibition [5]: Active; Kd [6]: 7.5 nM; inhibition (INH) (Wee1-like protein kinase [1]): Active; Kd [10]: 3.9 nM
CNC(=O)c1nn(C)c2c1C(C)(C)Cc1cnc(Nc3ccc(N4CCN(C)CC4)cc3)nc1-2 [MILCICLIB]		13.4 °C		11.5 °C	26.6 nM	3.6 °C		990 nM	inhibition (Wee1-like protein kinase [3]): Dose-dependent effect; Kd (Wee1-like protein kinase [11]; read-out: Kd): 13.6 nM; inhibition (Wee1-like protein kinase [12]): Dose-dependent effect
CC(=O)NCC(=O)N1[C@@H]2CC[C@H]1c1ccc(Nc3ncc(C(F)(F)F)c(NC4CCC4)n3)cc12 (single isomer, unassigned) [PF-03814735]		7.9 °C		8.5 °C	128 nM	-0.1 °C			Kd (Wee1-like protein kinase [11]; read-out: Kd): 78.7 nM; Kd [13]: Not Active
COc1cc(Nc2c(C#N)cnc3cc(OCCCN4CCN(C)CC4)c(OC)cc23)c(Cl)cc1Cl						3.9 °C			
COc1cc2c(Nc3cc(Cl)c(OC)c(Cl)c3)c(C#N)cnc2cc1OCCCN1CCN(C)CC1	3900 nM	10 °C	1800 nM	12.3 °C	4.7 nM	3 °C	1600 nM	444 nM	
C[C@@H](Oc1cc(-n2cnc3ccc(CN4CCN(C)CC4)cc32)sc1C(N)=O)c1ccccc1C(F)(F)F [GSK-461364]	1 to 3.5 nM		1 to 3.5 nM				1 to 3.5 nM		inhibition (Wee1-like protein kinase [3]): inactive; inhibition (INH) (Wee1-like protein kinase [14]): Not Active
CCOc1cc2ncc(C#N)c(Nc3ccc(F)c(Cl)c3)c2cc1NC(=O)/C=C/CN(C)C [PELITINIB]				5.6 °C	498 nM	2.4 °C		1100 nM	
CN1CCN(CCOc2cc(OC3CCOCC3)c3c(Nc4c(Cl)ccc5c4OCO5)ncnc3c2)CC1 [SARACATINIB]		1.2 °C		0.65 °C		2.1 °C			Kd [8]: Not Active; Kd (Wee1-like protein kinase [11]): Not Active
Cc1nc(Nc2ncc(C(=O)Nc3c(C)cccc3Cl)s2)cc(N2CCN(CCO)CC2)n1				9.2 °C					
CCN(CC)CCOc1ccc(Nc2ncc3cc(-c4c(Cl)cccc4Cl)c(=O)n(C)c3n2)cc1 [PD-0166285]	520 nM		160 nM		5 nM		290 nM	247 nM	
